The source of these data is patent US9834542B2, “LXR modulators” (BRISTOL-MYERS SQUIBB COMPANY, priority 2013, dated 2017).

The assay addresses T1, LXRβ (Homo sapiens, UniProt P55055).
T1 construct: Co-transfection expression plasmids, comprising full-length LXRα (pCMX-h LXRα[…] or LXRβ (pCMX-hLXRβ)); expressed in transfected cells; host or cells: CV-1 African Green Monkey Kidney Cells
T1 sequence (P55055 1-460): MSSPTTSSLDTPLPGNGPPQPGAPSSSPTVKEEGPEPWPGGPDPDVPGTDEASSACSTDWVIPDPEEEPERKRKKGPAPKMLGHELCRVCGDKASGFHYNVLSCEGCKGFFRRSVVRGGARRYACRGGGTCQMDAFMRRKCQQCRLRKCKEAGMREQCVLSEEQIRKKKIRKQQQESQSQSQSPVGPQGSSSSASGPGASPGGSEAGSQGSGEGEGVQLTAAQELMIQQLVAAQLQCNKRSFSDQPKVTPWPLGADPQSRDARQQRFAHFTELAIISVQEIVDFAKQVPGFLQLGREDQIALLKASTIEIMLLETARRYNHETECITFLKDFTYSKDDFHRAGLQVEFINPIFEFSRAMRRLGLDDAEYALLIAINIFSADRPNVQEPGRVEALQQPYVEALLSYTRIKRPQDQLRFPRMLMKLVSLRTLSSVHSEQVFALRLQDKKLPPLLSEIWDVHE
T1 sequence (P19793 1-462 partner): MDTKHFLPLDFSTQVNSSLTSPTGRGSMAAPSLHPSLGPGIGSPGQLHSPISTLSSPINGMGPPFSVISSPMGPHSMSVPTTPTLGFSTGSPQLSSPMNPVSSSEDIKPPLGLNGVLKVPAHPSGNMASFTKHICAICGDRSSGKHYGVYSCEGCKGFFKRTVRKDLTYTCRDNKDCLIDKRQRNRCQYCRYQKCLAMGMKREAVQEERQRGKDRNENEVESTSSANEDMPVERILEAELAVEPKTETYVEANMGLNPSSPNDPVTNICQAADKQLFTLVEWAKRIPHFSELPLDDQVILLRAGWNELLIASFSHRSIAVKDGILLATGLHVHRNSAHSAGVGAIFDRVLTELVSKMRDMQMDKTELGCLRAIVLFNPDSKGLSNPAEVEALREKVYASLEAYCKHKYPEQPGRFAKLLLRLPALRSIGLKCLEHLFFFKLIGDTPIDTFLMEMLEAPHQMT
As to the kind of experiment: Co-transfection assay (LXRE luciferase reporter), LXRβ. The arrangement: % Efficacy: concentration or dose not given beside the values. As to conditions: for EC50: CV-1 cells transfected with pCMX-hLXRβ and LXREx1-Tk-Luciferase, 20 hours incubation; for Emax: read-out: % Efficacy. It counts as cell-based. The essentials: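 Luciferase signal from an LXREx1-Tk reporter was measured after transfected CV-1 cells (full-length hLXRβ, endogenous RXR) were treated with compounds for 20 h at 37 °C, ≤0.5% DMSO. EC50 came from four-parameter fits of 11-point ½-log curves; % efficacy versus a reference agonist maximum.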

Where [1] appears, read: LXRβ co-transfection, relative to high control 1-(2,4-difluorobenzyl)-2-oxo-6-(4-phenoxyphenyl)-4-(trifluoromethyl)-1,2-dihydropyridine-3-carbonitrile.

SMILES strings stand for the structures.

With `Cc1nc(C(F)(F)F)cn1-c1ccc(-c2cc(Cl)c(CO)c(S(C)(=O)=O)c2)cc1-n1nncc1-c1ccc2c(c1)OC(F)(F)O2` [Example 21, {3-chloro-3′-[5-(2,2-difluoro-1,3-benzodioxol-5-yl)-1H-1,2,3-triazol-1-yl]-5-(methylsulfonyl)-4′-[2-methyl-4-(trifluoromethyl)-1H-imidazol-1-yl]biphenyl-4-yl}methanol], it took 502 nM to reach a half-maximal effect (EC50). Moreover, the Emax under setting [1] came out at 65%.

Turning to `Cc1nc(-c2cc(-c3cccc(S(C)(=O)=O)c3)ccc2-n2cc(C(F)(F)F)nc2C)c(-c2ccc(OC(F)F)cc2Cl)o1` [Example 396, 5-(2-chloro-4-(difluoromethoxy)phenyl)-2-methyl-4-(4-(2-methyl-4-(trifluoromethyl)-1H-imidazol-1-yl)-3′-(methylsulfonyl)biphenyl-3-yl)oxazole], the EC50 was 34 nM. Besides, under setting [1], the Emax worked out at 71%.

`Cc1nc(-c2cc(-c3cccc(S(=O)(=O)C(F)F)c3)ccc2-n2cc(C(F)(F)F)nc2C)c(-c2ccc(OC(F)F)c(F)c2)o1` [Example 430, 5-(4-(difluoromethoxy)-3-fluorophenyl)-4-(3′-(difluoromethylsulfonyl)-4-(2-methyl-4-(trifluoromethyl)-1H-imidazol-1-yl)biphenyl-3-yl)-2-methyloxazole] returned an EC50 of 225 nM. Under setting [1], the Emax was 88%.

As to `Cc1nc(C(F)(F)F)cn1-c1ccc(-c2cccc(S(C)(=O)=O)c2)cc1-n1nncc1-c1ccc(OC(F)F)cc1` [Example 65, 5-{4-[(difluoromethyl)oxy]phenyl}-1-{3′-(methylsulfonyl)-4-[2-methyl-4-(trifluoromethyl)-1H-imidazol-1-yl]biphenyl-3-yl}-1H-1,2,3-triazole], the EC50 was 297 nM. Further, the Emax under setting [1] came out at 80%.

With `Cc1nc(-c2cc(-c3cc(F)c(CO)c(S(C)(=O)=O)c3)ccc2-n2cc(C(F)(F)F)nc2C)c(-c2ccc(C)c(F)c2)o1` [Example 503, (3-fluoro-3′-(5-(3-fluoro-4-methylphenyl)-2-methyloxazol-4-yl)-4′-(2-methyl-4-(trifluoromethyl)-1H-imidazol-1-yl)-5-(methylsulfonyl)biphenyl-4-yl)methanol], the midpoint of the response, the EC50, lay at 45 nM. The Emax under setting [1] is 71%.

`Cc1nc(C(F)(F)F)cn1-c1ccc(-c2cccc(S(C)(=O)=O)c2)cc1-c1nc(C(F)(F)F)cn1-c1ccc(Cl)cc1` [Example 644, 1-(4-chlorophenyl)-2-(4-(2-methyl-4-(trifluoromethyl)-1H-imidazol-1-yl)-3′-(methylsulfonyl)biphenyl-3-yl)-4-(trifluoromethyl)-1H-imidazole]: the EC50 came out at 408 nM. Besides, under setting [1], the Emax is 37%.

For the compound `Cc1ccc(C(C)c2cnnn2-c2cc(-c3cc(Cl)c(CO)c(S(C)(=O)=O)c3)ccc2-n2cc(C(F)(F)F)nc2C)cc1` (stereo not drawn) [Example 110, (3-chloro-3′-{5-[1-(4-methylphenyl)ethyl]-1H-1,2,3-triazol-1-yl}-5-(methylsulfonyl)-4′-[2-methyl-4-(trifluoromethyl)-1H-imidazol-1-yl]biphenyl-4-yl)methanol], a half-maximal response (EC50) required 103 nM. The Emax under setting [1] stood at 77%.

`Cc1cc(-c2oc(C)nc2-c2cc(-c3cc(F)c(CO)c(S(C)(=O)=O)c3)ccc2-n2cc(C(F)(F)F)nc2C)cc(Cl)n1` [Example 452, (3′-(5-(2-chloro-6-methylpyridin-4-yl)-2-methyloxazol-4-yl)-3-fluoro-4′-(2-methyl-4-(trifluoromethyl)-1H-imidazol-1-yl)-5-(methylsulfonyl)biphenyl-4-yl)methanol] came in with an EC50 of 83 nM. The “% Efficacy” value under setting [1] was found to be 55%.

With `Cc1nc(C(F)(F)F)cn1-c1ccc(-c2cccc(S(C)(=O)=O)c2)cc1-c1nc(C(C)C)oc1-c1ccc(OC(F)(F)F)cc1` [Example 559, 2-isopropyl-4-(4-(2-methyl-4-(trifluoromethyl)-1H-imidazol-1-yl)-3′-(methylsulfonyl)-[1,1′-biphenyl]-3-yl)-5-(4-(trifluoromethoxy)phenyl)oxazole], the EC50 was 34 nM. Besides, under setting [1], the Emax amounted to 76%.

Compound `Cc1nc(C(F)(F)F)cn1-c1ccc(-c2cccc(S(C)(=O)=O)c2)cc1-c1oc(CC(=O)O)nc1-c1ccc(OC(F)(F)F)cc1` [Example 610, 2-(5-(4-(2-methyl-4-(trifluoromethyl)-1H-imidazol-1-yl)-3′-(methylsulfonyl)-[1,1′-biphenyl]-3-yl)-4-(4-(trifluoromethoxy)phenyl)oxazol-2-yl)acetic acid] gave an EC50 of 257 nM. Also, the Emax under setting [1] worked out at 94%.

Regarding `Cc1nc(C(F)(F)F)cn1-c1c(F)cc(-c2cccc(S(=O)(=O)N3CCCC3)c2)cc1-n1nncc1-c1ccc(OC(F)(F)F)cc1` [Example 199, 1-{5-fluoro-4-[2-methyl-4-(trifluoromethyl)-1H-imidazol-1-yl]-3′-(pyrrolidin-1-ylsulfonyl)biphenyl-3-yl}-5-{4-[(trifluoromethyl)oxy]phenyl}-1H-1,2,3-triazole], the midpoint of the response, the EC50, lay at 384 nM. In addition, the Emax under setting [1] worked out at 66%.

As for `Cc1nc(C(F)(F)F)cn1-c1ccc(-c2cc(Cl)c(CO)c(S(C)(=O)=O)c2)cc1-n1nncc1Cc1cccc(Cl)c1` [Example 117, (3-chloro-3′-{5-[(3-chlorophenyl)methyl]-1H-1,2,3-triazol-1-yl}-5-(methylsulfonyl)-4′-[2-methyl-4-(trifluoromethyl)-1H-imidazol-1-yl]biphenyl-4-yl)methanol], it took 1020 nM to reach a half-maximal effect (EC50). Further, the Emax under setting [1] was 76%.

`Cc1nc(C(F)(F)F)cn1-c1ccc(-c2cccc(S(C)(=O)=O)c2)cc1-c1nc(CC(C)O)oc1-c1ccc(OC(F)(F)F)cc1` (stereo not drawn) [Example 536, 1-(4-(4-(2-methyl-4-(trifluoromethyl)-1H-imidazol-1-yl)-3′-(methylsulfonyl)-[1,1′-biphenyl]-3-yl)-5-(4-(trifluoromethoxy)phenyl)oxazol-2-yl)propan-2-ol] came in with an EC50 of 280 nM. Under setting [1], the Emax amounted to 82%.

`Cc1nc(-c2cc(-c3cccc(S(C)(=O)=O)c3)ccc2-n2cc(C(F)(F)F)nc2C)c(-c2ccc(SC(F)(F)F)cc2)o1` [Example 571, 2-methyl-4-(4-(2-methyl-4-(trifluoromethyl)-1H-imidazol-1-yl)-3′-(methylsulfonyl)-[1,1′-biphenyl]-3-yl)-5-(4-((trifluoromethyl)thio)phenyl)oxazole] came in with an EC50 of 157 nM. Further, the Emax under setting [1] turned out to be 49%.

With `Cc1nc(-c2cc(-c3cccc(S(C)(=O)=O)c3)ccc2-n2cc(C(F)(F)F)nc2C)c(-c2ccc(Cl)cc2)o1` [Example 375, 5-(4-chlorophenyl)-2-methyl-4-{3′-(methylsulfonyl)-4-[2-methyl-4-(trifluoromethyl)-1H-imidazol-1-yl]biphenyl-3-yl}-1,3-oxazole], the EC50 was found to be 103 nM. For the same compound, the Emax under setting [1] came out at 84%.

`Cc1nc(-c2cc(-c3cccc(S(C)(=O)=O)c3)ccc2-n2cc(C(F)(F)F)nc2C)c(-c2ccc3c(c2)OC(F)(F)O3)o1` [Example 493, 5-(2,2-difluorobenzo[d][1,3]dioxol-5-yl)-2-methyl-4-(4-(2-methyl-4-(trifluoromethyl)-1H-imidazol-1-yl)-3′-(methylsulfonyl)biphenyl-3-yl)oxazole] came in with an EC50 of 40 nM. In addition, the Emax under setting [1] stood at 95%.

`Cc1cc(OC(F)(F)F)ccc1-c1cnnn1-c1cc(-c2cccc(S(C)(=O)=O)c2)ccc1-n1cc(C(F)(F)F)nc1C` [Example 57, 1-{3′-(methylsulfonyl)-4-[2-methyl-4-(trifluoromethyl)-1H-imidazol-1-yl]biphenyl-3-yl}-5-{2-methyl-4-[(trifluoromethyl)oxy]phenyl}-1H-1,2,3-triazole] showed an EC50 of 215 nM. The Emax under setting [1] came to 82%.

`CCS(=O)(=O)c1cccc(-c2ccc(-n3cc(C(C)(F)F)nc3C)c(-n3nncc3-c3ccc(OC(F)(F)F)cc3)c2)c1` [Example 177, 1-{4-[4-(1,1-difluoroethyl)-2-methyl-1H-imidazol-1-yl]-3′-(ethylsulfonyl)biphenyl-3-yl}-5-{4-[(trifluoromethyl)oxy]phenyl}-1H-1,2,3-triazole]: the EC50 is 894 nM. Also, under setting [1], the Emax came out at 78%.
